Results from patent publication US20130324522A1, “INSECT ODORANT RECEPTOR ANTAGONISTS” (THE ROCKEFELLER UNIVERSITY, priority 2010, published 2013).

Tests used:
Aedes aegypti = assay: Mosquito two-port olfactometer behavioral assay; format: in vivo; settings: 3.5 mg dose; female mosquitoes, human hand odor and CO2, two-port olfactometer
Method: Female Aedes aegypti Orlando mosquitoes (8-11 days old) were used in this assay. Larvae were hatched from dried egg papers and were reared in pans with deionized water supplemented with two tablets of fish food “TetraMin®” from Tetra every day. Pupae were transferred to cages and maintained before and after eclosion at 25° C. and 70-80% humidity with a 12 hr light: 12 hr dark photocycle. Adults were fed a 10% corn syrup solution and were free to mate with each other. One day prior to the assay, females were separated and placed into starvation cartridges (each containing 20 mosquitoes) without any food or water. The cartridges were placed at 25° C. and 70-80% humidity overnight (>l4hr).
A two-port olfactometer, adapted from Gouck (Gouck, H. K. Host preferences of various strains of Aedes aegypti and Aedes simpsoni as determined by an olfactometer. Bull. World Health Org. 47:680-683, 1972) was used to assess the repellent characteristic of small compounds by measuring mosquito host-seeking preference to human odor with a compound or its solvent. […] After 8 minutes, the number of mosquitoes in the trapping chambers (“attracted”) and main compartment (“not-attracted”) was counted. Data were expressed as % attracted/% activated. Significance was assessed using the analysis of variance, ANOVA. […] Significance was assessed using the Mann-Whitney U-test. […]

Drosophila melanogaster = assay: Fly two-choice behavior assay; format: in vivo
Method: Male flies (Drosophila melanogaster) of the w^1118 genotype were “wet-starved” for 24 hours in plastic culture vials lacking food but supplemented with wet cotton plugs on the bottom. After the 24 hour fasting period before the assay, flies were placed into a two-choice behavior chamber. This two-choice chamber consists of one 15 cm Petri dish with two round holes (2.2 cm diameter) that were punched along the midline at an equal distance (2.9 cm) from the rim. Two small plastic vials were connected to the dish and plugged with rigid cotton plugs perforated with 1 mL pipette tips. The bottom of each trap vial was humidified with the same cotton plugs used to plug the vial by soaking the plug in deionized water for a few seconds until it was fully wetted. Each trap contained a small filter paper strip with 10 μL of either water or pure odor (3-methyl-thio-1-propanol). Flies could enter one of the two traps through a plastic pipette tip (1 mL) inserted into top of each vial. 10 μL of RU-14, or solvent (100% ethanol) or DEET was placed on small circular filter paper, and introduced into the pipette tips at the entrance. […] After 24 hours, flies were counted and a response was computed by calculating the percent of flies in each trap. Significance was assessed using the Mann-Whitney U-test. […]

Row | Compound | inhibition of host-seeking behavior (Aedes aegypti) | also measured
1 | O=C(C1CCCC1)N(Cc1nccn1CCc1c(F)cccc1Cl)C1CC1 [RU-I2] | significant inhibition | –
2 | Fc1cccc(Cl)c1Cn1ccnc1CN(CC1CCCC1)C1CC1 [RU-I4] | – | suppression of 3MTP attraction (Drosophila melanogaster; 3.5 mg dose): significant suppression
3 | CN(Cc1nccn1Cc1c(F)cccc1Cl)C(=O)C1CCCC1 [RU-I5] | significant inhibition | –
4 | CCN(CC)C(=O)c1cccc(C)c1 [DEET, N,N-diethyl-m-toluamide, reference compound] | – | suppression of 3MTP attraction (Drosophila melanogaster; range of 1 mg to 10 mg): significant suppression
